Literature values, collected in patent US6555140B1, “Composition and method for enhancing male fertility and libido” (priority 1999, dated 2003).

What was measured:
[1] = for share of the ingested amount metabolically degraded: transported from inside the intestine into the blood stream
[2] = in water

| Compound | share of what is ingested metabolically available [1] | share of the ingested amount metabolically degraded [1] | Solubility [2] |
| --- | --- | --- | --- |
| NCCCCNCCCN [Spermidine Free Base, Spermidine] | about 70% | about 30% | Soluble in water up to 50 mg/ml |
| NCCCNCCCCNCCCN [Spermine Free Base, Spermine] | about 70% | about 30% | Soluble in water up to 50 mg/ml |
